Data published in patent US20240059703A1 (AMGEN INC., priority 2021, published 2024).
pIC50: −log10 of the molar value.

How the values were obtained:
KRAS G12C = KRAS G12C (Homo sapiens (Human), UniProt P01116, C118A/G12C); assay: 2 h coupled exchange assay; type: biochemical; conditions: Avg 2 h Coupled exchange IC50, 2 h compound pre-incubation
Procedure: The term “2 h coupled exchange assay” or “20 h coupled exchange assay” as used herein refers to the assay described in the Section entitled “BIOLOGICAL EVALUATION.”

[1] = tested on: MIA PaCa-2 (human pancreatic carcinoma) cells; assay: Cell Viability Assay (CellTiter-Glo), MIA PaCa-2; type: cell-based; conditions: Homo sapiens, MIA PaCa-2, 72 h
Procedure: Serially-diluted compound or DMSO was added to the cells, and plates were incubated at 37° C., 5% CO2 for 72 h. Cell viability was measured using a CellTiter-Glo® Luminescent Cell Viability Assay kit (Promega) according to the manufacturer's protocol. The luminescence signal of treated samples was normalized to DMSO control, and data were analyzed using a 4-parameter logistic model to calculate IC50 values.

[2] = tested on: A549 (human lung carcinoma) cells; assay: Cell Viability Assay (CellTiter-Glo), A549; type: cell-based; conditions: Homo sapiens, A549, 72 h
Outline: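 Luminescent ATP read-out (CellTiter-Glo) after 72 h compound treatment of cells seeded overnight at 1.67E+04 cells/mL in RPMI 1640, 10% FBS; signal relative to DMSO, IC50 by 4-parameter logistic model.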

Chain of KRAS G12C (P01116 other isoform, or with tags, fused parts or gaps G12C/C118A): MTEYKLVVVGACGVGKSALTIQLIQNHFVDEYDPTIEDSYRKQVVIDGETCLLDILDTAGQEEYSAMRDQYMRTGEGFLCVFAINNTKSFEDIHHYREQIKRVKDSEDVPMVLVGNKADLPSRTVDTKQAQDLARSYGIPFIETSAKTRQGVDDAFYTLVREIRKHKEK

| Compound | pIC50 (KRAS G12C) | pIC50 [1] | pIC50 [2] |
| --- | --- | --- | --- |
| C=CC(=O)N1CC2(CCN(c3nc4c(c(-c5ccc(F)cc5)c3C#N)CCC(c3scnc3C)=C4)C2)C1 [Example 23-30, 4-(4-fluorophenyl)-7-(4-methyl-1,3-thiazol-5-yl)-2-(2-(2-propenoyl)-2,6-diazaspiro[3.4]octan-6-yl)-5,6-dihydro-3-quinolinecarbonitrile] | 6.88 | 5.71 | 5.08 |
| C=CC(=O)N1CC2(CCN(c3nc4c(c(-c5cc(OC)ccc5Cl)c3C#N)CCC(c3scnc3C)=C4)C2)C1 [Example 23-31, 4-(2-chloro-5-methoxyphenyl)-7-(4-methyl-1,3-thiazol-5-yl)-2-(2-(2-propenoyl)-2,6-diazaspiro[3.4]octan-6-yl)-5,6-dihydro-3-quinolinecarbonitrile] | 6.77 | 5.65 | 5.17 |
| C=CC(=O)N1CC2(CCN(c3nc4c(c(-c5c(O)cccc5Cl)c3C#N)COC(c3scnc3C)C4)C2)C1 [Example 23-35, (7R)-4-(2-chloro-6-hydroxyphenyl)-7-(4-methyl-1,3-thiazol-5-yl)-2-(2-(2-propenoyl)-2,6-diazaspiro[3.4]octan-6-yl)-7,8-dihydro-5H-pyrano[4,3-b]pyridine-3-carbonitrile (7S)-4-(2-chloro-6-hydroxyphenyl)-7-(4-methyl-1,3-thiazol-5-yl)-2-(2-(2-propenoyl)-2,6-diazaspiro[3.4]octan-6-yl)-7,8-dihydro-5H-pyrano[4,3-b]pyridine-3-carbonitrile] | 6.08 | 5.62 | 4.68 |
| C=CC(=O)N1CC2(CCN(c3nc4c(c(-c5c(F)cccc5Cl)c3C#N)COC(c3scnc3C)C4)C2)C1 [Example 23-36, (7R)-4-(2-chloro-6-fluorophenyl)-7-(4-methyl-1,3-thiazol-5-yl)-2-(2-(2-propenoyl)-2,6-diazaspiro[3.4]octan-6-yl)-7,8-dihydro-5H-pyrano[4,3-b]pyridine-3-carbonitrile (7S)-4-(2-chloro-6-fluorophenyl)-7-(4-methyl-1,3-thiazol-5-yl)-2-(2-(2-propenoyl)-2,6-diazaspiro[3.4]octan-6-yl)-7,8-dihydro-5H-pyrano[4,3-b]pyridine-3-carbonitrile] | 6.57 | 5.82 | 5.03 |
| C=CC(=O)N1CC2(CCN(c3nc4c(c(-c5ccccc5F)c3C#N)CCC3(c5scnc5C)C4C3(F)F)C2)C1 (stereo not drawn) [Example 23-37] | 6.75 | 5.51 | 4.84 |
| C=CC(=O)N1CC2(CCN(c3nc4c(c(-c5cc(OC)ccc5F)c3C#N)CCC(c3scnc3C)=C4)C2)C1 [Example 23-38, 4-(2-fluoro-5-methoxyphenyl)-7-(4-methyl-1,3-thiazol-5-yl)-2-(2-(2-propenoyl)-2,6-diazaspiro[3.4]octan-6-yl)-5,6-dihydro-3-quinolinecarbonitrile] | 6.87 | 5.81 | 5.10 |
| C=CC(=O)N1CC2(CCN(c3nc4c(c(-c5ccccc5OC)c3C#N)CCC(c3scnc3C)=C4)C2)C1 [Example 23-39, 4-(2-methoxyphenyl)-7-(4-methyl-1,3-thiazol-5-yl)-2-(2-(2-propenoyl)-2,6-diazaspiro[3.4]octan-6-yl)-5,6-dihydro-3-quinolinecarbonitrile] | 6.40 | 5.63 | 5.11 |
| C=CC(=O)N1CC2(CCN(c3nc4c(c(-c5ccccc5O)c3C#N)CCC(c3scnc3C)=C4)C2)C1 [Example 23-40, 4-(2-hydroxyphenyl)-7-(4-methyl-1,3-thiazol-5-yl)-2-(2-(2-propenoyl)-2,6-diazaspiro[3.4]octan-6-yl)-5,6-dihydro-3-quinolinecarbonitrile] | 6.87 | 5.64 | 5.14 |
| C=CC(=O)N1CC2(CCN(c3nc4c(c(-c5cccc(O)c5F)c3C#N)CCC(c3scnc3C)=C4)C2)C1 [Example 23-43, 4-(2-fluoro-3-hydroxyphenyl)-7-(4-methyl-1,3-thiazol-5-yl)-2-(2-(2-propenoyl)-2,6-diazaspiro[3.4]octan-6-yl)-5,6-dihydro-3-quinolinecarbonitrile] | 6.52 | 5.34 | 5.08 |
| C=CC(=O)N1CC2(CCN(c3nc4c(c(-c5cccc(OC)c5F)c3C#N)CCC(c3scnc3C)=C4)C2)C1 [Example 23-44, 4-(2-fluoro-3-methoxyphenyl)-7-(4-methyl-1,3-thiazol-5-yl)-2-(2-(2-propenoyl)-2,6-diazaspiro[3.4]octan-6-yl)-5,6-dihydro-3-quinolinecarbonitrile] | 6.16 | 5.51 | 5.23 |
| C=CC(=O)N1CC2(CCN(c3nc4c(c(-c5ncccc5F)c3C#N)CCC(c3scnc3C)=C4)C2)C1 [Example 23-49, 4-(3-fluoro-2-pyridinyl)-7-(4-methyl-1,3-thiazol-5-yl)-2-(2-(2-propenoyl)-2,6-diazaspiro[3.4]octan-6-yl)-5,6-dihydro-3-quinolinecarbonitrile] | 6.71 | 6.17 | < 5.30 |
| C=CC(=O)N1CC2(CCN(c3nc4c(c(-c5cccc(F)c5OC)c3C#N)CCC(c3scnc3C)=C4)C2)C1 [Example 23-53, 4-(3-fluoro-2-methoxyphenyl)-7-(4-methyl-1,3-thiazol-5-yl)-2-(2-(2-propenoyl)-2,6-diazaspiro[3.4]octan-6-yl)-5,6-dihydro-3-quinolinecarbonitrile] | 6.41 | 5.91 | 5.05 |

Compounds with a higher pIC50 (KRAS G12C), results first:

| pIC50 (KRAS G12C) | pIC50 [1] | pIC50 [2] | Compound |
| --- | --- | --- | --- |
| 6.92 | 5.67 | < 5.30 | C=CC(=O)N1CC2(CCN(c3nc4c(c(-c5cccc(O)c5)c3C#N)CCC(c3scnc3C)=C4)C2)C1 [Example 23-55, 4-(3-hydroxyphenyl)-7-(4-methyl-1,3-thiazol-5-yl)-2-(2-(2-propenoyl)-2,6-diazaspiro[3.4]octan-6-yl)-5,6-dihydro-3-quinolinecarbonitrile] |
| 6.94 | 5.82 | 5.27 | C=CC(=O)N1CC2(CCN(c3nc4c(c(-c5cccc(F)c5F)c3C#N)CCC(c3scnc3C)=C4)C2)C1 [Example 23-46, 4-(2,3-difluorophenyl)-7-(4-methyl-1,3-thiazol-5-yl)-2-(2-(2-propenoyl)-2,6-diazaspiro[3.4]octan-6-yl)-5,6-dihydro-3-quinolinecarbonitrile] |
| 6.95 | 6.12 | 5.46 | C=CC(=O)N1CC2(CCN(c3nc4c(c(-c5c(C)cccc5F)c3C#N)CCC(c3scnc3C)=C4)C2)C1 [Example 23-48, 4-(2-fluoro-6-methylphenyl)-7-(4-methyl-1,3-thiazol-5-yl)-2-(2-(2-propenoyl)-2,6-diazaspiro[3.4]octan-6-yl)-5,6-dihydro-3-quinolinecarbonitrile] |
| 6.95 | 5.68 | < 5.30 | C=CC(=O)N1CC2(CCN(c3nc4c(c(-c5cccc(F)c5O)c3C#N)CCC(c3scnc3C)=C4)C2)C1 [Example 23-54, 4-(3-fluoro-2-hydroxyphenyl)-7-(4-methyl-1,3-thiazol-5-yl)-2-(2-(2-propenoyl)-2,6-diazaspiro[3.4]octan-6-yl)-5,6-dihydro-3-quinolinecarbonitrile] |
| 6.96 | 6.11 | 5.47 | C=CC(=O)N1CC2(CCN(c3nc4c(c(-c5ccccc5F)c3C#N)CCC(c3scnc3COC)=C4)C2)C1 [Example 23-52, 4-(2-fluorophenyl)-7-(4-(methoxymethyl)-1,3-thiazol-5-yl)-2-(2-(2-propenoyl)-2,6-diazaspiro[3.4]octan-6-yl)-5,6-dihydro-3-quinolinecarbonitrile] |
| 7.01 | 5.96 | < 5.30 | C=CC(=O)N1CC2(CCN(c3nc4c(c(-c5c(O)cccc5Cl)c3C#N)CCC(c3scnc3C)=C4)C2)C1 [Example 23-34, 4-(2-chloro-6-hydroxyphenyl)-7-(4-methyl-1,3-thiazol-5-yl)-2-(2-(2-propenoyl)-2,6-diazaspiro[3.4]octan-6-yl)-5,6-dihydro-3-quinolinecarbonitrile] |
| 7.32 | 5.88 | < 5.30 | C=CC(=O)N1CC2(CCN(c3nc4c(c(-c5c(O)cccc5F)c3C#N)CCC(c3scnc3C)=C4)C2)C1 [Example 23-29, 4-(2-fluoro-6-hydroxyphenyl)-7-(4-methyl-1,3-thiazol-5-yl)-2-(2-(2-propenoyl)-2,6-diazaspiro[3.4]octan-6-yl)-5,6-dihydro-3-quinolinecarbonitrile] |
| 7.36 | < 5.30 | < 5.30 | C=CC(=O)N1CC2(CCN(c3nc4c(c(-c5cc(O)ccc5F)c3C#N)CCC(c3scnc3C)=C4)C2)C1 [Example 23-47, 4-(2-fluoro-5-hydroxyphenyl)-7-(4-methyl-1,3-thiazol-5-yl)-2-(2-(2-propenoyl)-2,6-diazaspiro[3.4]octan-6-yl)-5,6-dihydro-3-quinolinecarbonitrile] |
| 7.48 | 5.97 | < 5.30 | C=CC(=O)N1CC2(CCN(c3nc4c(c(-c5cc(O)ccc5Cl)c3C#N)CCC(c3scnc3C)=C4)C2)C1 [Example 23-45, 4-(2-chloro-5-hydroxyphenyl)-7-(4-methyl-1,3-thiazol-5-yl)-2-(2-(2-propenoyl)-2,6-diazaspiro[3.4]octan-6-yl)-5,6-dihydro-3-quinolinecarbonitrile] |
